From patent US11155544B2, “Heterocycle comprising tyrosine kinase inhibitors” (Principia Biopharma Inc., priority 2015, dated 2021)

Columns and labels:
[1] = tested on: CD69 expression; assay: Blockade of CD69 Expression in Human Whole Blood Samples; assay type: cell-based; settings: 30 minutes pre-incubation, activation with anti-IgM, cells gated on CD20, CD69 by FACS
Experimental: Activation of the B cell receptor leads to increased BTK activity, calcium mobilization and B cell activation (see Honigberg L. A., et. al., Proc Natl Acad Sci USA. 107:13075-80. 2010). […] CD69 was expressed following B cell activation as a measure of BTK activity in whole blood. Aliquots of whole blood were pre-incubated with serial dilutions of test compound for 30 minutes followed by activation with anti-IgM (goat Fab′ 2, 50 μg/ml). Samples were incubated overnight at 37° C. and then stained with PE labeled anti-CD20 and APC labeled anti-CD69 (BD Pharmingen) for 30 minutes according to the manufacturer's directions. Whole blood was then lysed and cells gated on CD20 expression were quantified for CD 69 expression by FACS. The percent inhibition was calculated based on a DMSO control for no inhibition and plotted as a function of test compound concentration from which an IC50 value was calculated.

[2] = target: human recombinant BTK (Homo sapiens (Human), UniProt Q06187); assay: BTK Enzymatic Activity Assay (Caliper-based kinase assay); assay type: biochemical; settings: human recombinant BTK (0.5 nM), ATP (16 μM), peptide substrate (1 μM), room temperature for 3 h
human recombinant BTK, sequence (Q06187 whole entry): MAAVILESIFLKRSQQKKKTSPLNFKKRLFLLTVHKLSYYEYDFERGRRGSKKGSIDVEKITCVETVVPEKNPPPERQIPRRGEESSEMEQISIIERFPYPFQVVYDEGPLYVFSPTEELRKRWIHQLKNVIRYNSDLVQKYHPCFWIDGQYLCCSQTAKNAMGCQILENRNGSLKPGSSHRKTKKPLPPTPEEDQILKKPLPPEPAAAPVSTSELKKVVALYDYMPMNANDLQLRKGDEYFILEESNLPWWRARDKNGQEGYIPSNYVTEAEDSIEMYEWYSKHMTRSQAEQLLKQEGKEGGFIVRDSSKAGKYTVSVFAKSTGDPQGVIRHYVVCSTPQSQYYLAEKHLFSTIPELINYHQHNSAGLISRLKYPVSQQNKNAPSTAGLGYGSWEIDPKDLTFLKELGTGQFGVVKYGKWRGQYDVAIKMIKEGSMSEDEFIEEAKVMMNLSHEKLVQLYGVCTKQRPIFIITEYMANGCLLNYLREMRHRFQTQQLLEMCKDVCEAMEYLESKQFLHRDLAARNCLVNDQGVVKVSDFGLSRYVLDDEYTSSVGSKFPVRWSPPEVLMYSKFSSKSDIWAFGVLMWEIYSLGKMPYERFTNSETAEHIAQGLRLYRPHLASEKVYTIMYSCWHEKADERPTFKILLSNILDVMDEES
Experimental: A Caliper-based kinase assay (Caliper Life Sciences, Hopkinton, Mass.) was used to measure inhibition of BTK kinase activity of a compound of the present disclosure. Serial dilutions of test compounds were incubated with human recombinant BTK (0.5 nM), ATP (16 μM) and a phosphoacceptor peptide substrate FAM-GEEPLYWSFPAKKK-NH2 (1 μM) at room temperature for 3 h. The reaction was then terminated with EDTA, final concentration 20 mM and the phosphorylated reaction product was quantified on a Caliper Desktop Profiler (Caliper LabChip 3000). Percent inhibition was calculated for each compound dilution and the concentration that produced 50% inhibition was calculated. This value is presented as the IC50.

Molecule | IC50 [1] [nM] | IC50 [2] [nM]
CC(C)(/C=C(\C#N)C(=O)N1CCC[C@@H](n2nc(-c3ccc(Oc4ccccc4)cc3F)c3c(N)nccc32)C1)N1CCOCC1 [Compound 11, (R)-2-(3-(4-amino-3-(2-fluoro-4-phenoxyphenyl)-1H-pyrazolo[4,3-c]pyridin-1-yl)piperidine-1-carbonyl)-4-methyl-4-morpholinopent-2-enenitrile] | 200 | 2
CN(C1COC1)C(C)(C)C=C(C#N)C(=O)N1CCC[C@H]1Cc1nc(-c2ccc(Oc3ccccc3)cc2F)c2c(N)nccn12 [Compound 18, (S)-2-(2-((8-amino-1-(2-fluoro-4-phenoxyphenyl)imidazo[1,5-a]pyrazin-3-yl)methyl)pyrrolidine-1-carbonyl)-4-methyl-4-(methyl(oxetan-3-yl)amino)pent-2-enenitrile] | 130 | 4.3
CN(C1COC1)C(C)(C)C=C(C#N)C(=O)N1CCC[C@@H](n2nc(-c3ccc(Oc4ccccc4)cc3F)c3c(N)nccc32)C1 [Compound 14, (R)-2-(3-(4-amino-3-(2-fluoro-4-phenoxyphenyl)-1H-pyrazolo[4,3-c]pyridin-1-yl)piperidine-1-carbonyl)-4-methyl-4-(methyl(oxetan-3-yl)amino)pent-2-enenitrile] | 181 | 
CC(C)(C)C=C(C#N)C(=O)N1CCC[C@@H](n2nc(-c3ccc(Oc4ccccc4)cc3F)c3c(N)nccc32)C1 [Compound 9, (R)-2-(3-(4-amino-3-(2-fluoro-4-phenoxyphenyl)-1H-pyrazolo[4,3-c]pyridin-1-yl)piperidine-1-carbonyl)-4,4-dimethylpent-2-enenitrile] | 526 | 8.6
(R)-2-(3-(4-amino-3-(2-methyl-4-phenoxyphenyl)-1H-pyrazolo[4,3-c]pyridin-1-yl)piperidine-1-carbonyl)-4-methyl-4-(4-(oxetan-3-yl)piperazin-1-yl)pent-2-enenitrile [Compound 25] | 430 | 4.4
CN1CCN(C(C)(C)/C=C(\C#N)C(=O)N2CCC[C@@H](n3nc(-c4ccc(Oc5ccccc5)cc4F)c4c(N)nccc43)C2)CC1 [Compound 10, (R)-2-(3-(4-amino-3-(2-fluoro-4-phenoxyphenyl)-1H-pyrazolo[4,3-c]pyridin-1-yl)piperidine-1-carbonyl)-4-methyl-4-(4-methylpiperazin-1-yl)pent-2-enenitrile] | 289 | 1.9
CC(C)(C=C(C#N)C(=O)N1CCC[C@@H](n2nc(-c3ccc(Oc4ccccc4)cc3F)c3c(N)nccc32)C1)N1CCNC(=O)C1 [Compound 24, (R)-2-(3-(4-amino-3-(2-fluoro-4-phenoxyphenyl)-1H-pyrazolo[4,3-c]pyridin-1-yl)piperidine-1-carbonyl)-4-methyl-4-(3-oxopiperazin-1-yl)pent-2-enenitrile] | 577 | 1.7
COC(=O)N1CCN(C(C)(C)C=C(C#N)C(=O)N2CCC[C@@H](c3nc(-c4ccc(Oc5ccccc5)cc4F)c4c(N)nccn34)C2)CC1 [Compound 58, (R)-methyl 4-(5-(3-(8-amino-1-(2-fluoro-4-phenoxyphenyl)imidazo[1,5-a]pyrazin-3-yl)piperidin-1-yl)-4-cyano-2-methyl-5-oxopent-3-en-2-yl)piperazine-1-carboxylate] |  | 2.8
CN1CCN(C(C)(C)C=C(C#N)C(=O)N2CCC[C@@H](n3nc(-c4ccc(Oc5ccccc5)cc4F)c4c(N)nccc43)C2)CC1=O [Compound 72, (R)-2-(3-(4-amino-3-(2-fluoro-4-phenoxyphenyl)-1H-pyrazolo[4,3-c]pyridin-1-yl)piperidine-1-carbonyl)-4-methyl-4-(4-methyl-3-oxopiperazin-1-yl)pent-2-enenitrile] |  | 2

Continued by falling IC50 [1], values first:

IC50 [1] [nM] | IC50 [2] [nM] | Molecule
1290 | 7.4 | CC(C)(C=C(C#N)C(=O)N1CCC[C@H]1Cn1nc(-c2ccc(Oc3ccccc3)cc2F)c2c(N)nccc21)N1CCN(C2COC2)CC1 [Compound 13, (S)-2-(2-((4-amino-3-(2-fluoro-4-phenoxyphenyl)-1H-pyrazolo[4,3-c]pyridin-1-yl)methyl)pyrrolidine-1-carbonyl)-4-methyl-4-(4-(oxetan-3-yl)piperazin-1-yl)pent-2-enenitrile]
931 | 1.7 | CC(C)(C)C=C(C#N)C(=O)N1CCC[C@H]1Cc1nc(-c2ccc(Oc3ccccc3)cc2F)c2c(N)nccn12 [Compound 16, (S)-2-(2-((8-amino-1-(2-fluoro-4-phenoxyphenyl)imidazo[1,5-a]pyrazin-3-yl)methyl)pyrrolidine-1-carbonyl)-4,4-dimethylpent-2-enenitrile]
874 | 14 | CN1CCN(C(C)(C)C=C(C#N)C(=O)N2CCC[C@H]2Cn2nc(-c3ccc(Oc4ccccc4)cc3F)c3c(N)nccc32)CC1 [Compound 12, (S)-2-(2-((4-amino-3-(2-fluoro-4-phenoxyphenyl)-1H-pyrazolo[4,3-c]pyridin-1-yl)methyl)pyrrolidine-1-carbonyl)-4-methyl-4-(4-methylpiperazin-1-yl)pent-2-enenitrile]
538 | 1.6 | CC(C)(C=C(C#N)C(=O)N1CCC[C@@H](n2nc(-c3ccc(Oc4ccccc4)cc3F)c3c(N)nccc32)C1)C1CCN(C2COC2)CC1 [Compound 23, (R)-2-(3-(4-amino-3-(2-fluoro-4-phenoxyphenyl)-1H-pyrazolo[4,3-c]pyridin-1-yl)piperidine-1-carbonyl)-4-methyl-4-(1-(oxetan-3-yl)piperidin-4-yl)pent-2-enenitrile]
511 | 2.5 | CC(C)(C=C(C#N)C(=O)N1CCC[C@H]1Cn1nc(-c2ccc(Oc3ccccc3)cc2F)c2c(N)nccc21)N1CCOCC1 [Compound 22, (S)-2-(2-((4-amino-3-(2-fluoro-4-phenoxyphenyl)-1H-pyrazolo[4,3-c]pyridin-1-yl)methyl)pyrrolidine-1-carbonyl)-4-methyl-4-morpholinopent-2-enenitrile]
367 | 3 | CC(C)(C=C(C#N)C(=O)N1CCC[C@@H](n2nc(-c3ccc(Oc4ccccc4)c(F)c3)c3c(N)nccc32)C1)N1CCN(C2COC2)CC1 [Compound 26, (R)-2-(3-(4-amino-3-(3-fluoro-4-phenoxyphenyl)-1H-pyrazolo[4,3-c]pyridin-1-yl)piperidine-1-carbonyl)-4-methyl-4-(4-(oxetan-3-yl)piperazin-1-yl)pent-2-enenitrile]
178 | 23.5 | CC(C)(C=C(C#N)C(=O)N1CCC[C@H]1Cc1nc(-c2ccc(Oc3ccccc3)cc2F)c2c(N)nccn12)N1CCN(C2COC2)CC1 [Compound 19, (S)-2-(2-((8-amino-1-(2-fluoro-4-phenoxyphenyl)imidazo[1,5-a]pyrazin-3-yl)methyl)pyrrolidine-1-carbonyl)-4-methyl-4-(4-(oxetan-3-yl)piperazin-1-yl)pent-2-enenitrile]
165 | 2.9 | CC(C)(/C=C(\C#N)C(=O)N1CCC[C@H]1Cc1nc(-c2ccc(Oc3ccccc3)cc2F)c2c(N)nccn12)N1CCOCC1 [Compound 17, (S)-2-(2-((8-amino-1-(2-fluoro-4-phenoxyphenyl)imidazo[1,5-a]pyrazin-3-yl)methyl)pyrrolidine-1-carbonyl)-4-methyl-4-morpholinopent-2-enenitrile]
114 |  | CC(C)(C=C(C#N)C(=O)N1CCC[C@@H](n2nc(-c3ccc(Oc4ccccc4)cc3F)c3c(N)nccc32)C1)N1CCN(C2(C)COC2)CC1 [Compound 7, (R)-2-(3-(4-amino-3-(2-fluoro-4-phenoxyphenyl)-1H-pyrazolo[4,3-c]pyridin-1-yl)piperidine-1-carbonyl)-4-methyl-4-(4-(3-methyloxetan-3-yl)piperazin-1-yl)pent-2-enenitrile]
109 |  | CC(C)(C=C(C#N)C(=O)N1CCC[C@@H](n2nc(-c3ccc(Oc4ccccc4)cc3F)c3c(N)nccc32)C1)N1CCN(C2COC2)CC1 [Compound 1, (R)-2-(3-(4-amino-3-(2-fluoro-4-phenoxyphenyl)-1H-pyrazolo[4,3-c]pyridin-1-yl)piperidine-1-carbonyl)-4-methyl-4-(4-(oxetan-3-yl)piperazin-1-yl)pent-2-enenitrile]
